From patent US20030086923A1, “Method for the prevention and/or treatment of atherosclerosis” (priority 1999, published 2003)

Columns and labels:
human PPARδ = biological target: T1, human PPARδ (Homo sapiens, UniProt Q03181); assay: PPARδ competition binding assay
T1 sequence (Q03181 1-441): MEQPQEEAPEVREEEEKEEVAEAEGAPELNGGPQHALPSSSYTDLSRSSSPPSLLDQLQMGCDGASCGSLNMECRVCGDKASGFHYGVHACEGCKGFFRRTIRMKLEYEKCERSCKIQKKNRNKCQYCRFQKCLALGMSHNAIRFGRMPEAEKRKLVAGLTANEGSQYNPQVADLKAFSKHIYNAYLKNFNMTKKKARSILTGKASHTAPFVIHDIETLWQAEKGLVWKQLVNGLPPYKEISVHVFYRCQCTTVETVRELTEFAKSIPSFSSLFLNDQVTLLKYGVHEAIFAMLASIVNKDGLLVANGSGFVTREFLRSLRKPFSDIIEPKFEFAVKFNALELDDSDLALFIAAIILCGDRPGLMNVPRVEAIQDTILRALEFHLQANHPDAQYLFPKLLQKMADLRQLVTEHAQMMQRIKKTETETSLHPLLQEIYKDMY
Text: (§1) The term ligand throughout this application should be understood to include an agonist, partial agonist or antagonist of LXR. The ligand may be selective for LXRα or LXRβ, or it may have mixed binding affinity for both LXRα and LXRβ. Particularly, compounds within the scope of this invention include those which have greater selectivity as determined by binding affinity for LXRα and/or LXRβ receptors than they have for each of the PPARα, γ and δ receptors.

ABC1 mRNA = assay: Induction of ABC1 mRNA levels in THP-1 macrophages; format: cell-based; conditions: Homo sapiens, ABC-1, 0.10 μM, 6 hours, vs DMSO control, read-out: Fold Induction of ABC1 mRNA (Mean ± SEM)
Description: Induction of ABC1 mRNA levels
Cultured human THP-1 cells were used. All cell culture incubations were performed at 37° C. under 95% air/5% carbon dioxide. Cells were grown in Complete RPMI medium plus 10% FCS (Fetal Calf Serum). Complete RPMI medium is defined as RPMI medium (Sigma Cat.# R8005) containing […], 1 mM Na Pyruvate, 2 mM L-Glutamine, and Antibiotic-Antimyotic Solution (Sigma Cat.# A9909: 100U/ml Penicillin, 0.1 mg/ml Streptomycin, 0.251l/ml Amphotericin B). Cells were differentiated into macrophages by incubation in Complete RPMI medium plus 10% FCS (Fetal Calf Serum) plus 100 nM tetradecanoyl phorbol acetate for three days. After differentiation, the THP-1 macrophages were incubated in Complete RPMI medium plus 10% FCS (Fetal Calf Serum) with the test LXR agonist. After 6 hours at 37° C., the cells were harvested and total RNA prepared using the phenol/guanidine isothiocyanate method as supplied and described by Molecular Research Center, Inc. (TRI REAGENTφ Cat. No. TR 118). ABC1 mRNA levels in the total RNA were measured using the TaqMan® mRNA quantitation system, following protocols published by the manufacturer (Perkin-Elmer). The oligonucleotide PCR primers used to detect ABC1 were:
The oligonucleotide probe used was:
ABC1 mRNA levels in each sample were normalized to the mRNA levels for the 23 kDa highly basic protein. […]

human PPARα = biological target: T2, human PPARα (Homo sapiens, UniProt Q07869); assay: PPARα competition binding assay
T2 sequence (Q07869 1-468): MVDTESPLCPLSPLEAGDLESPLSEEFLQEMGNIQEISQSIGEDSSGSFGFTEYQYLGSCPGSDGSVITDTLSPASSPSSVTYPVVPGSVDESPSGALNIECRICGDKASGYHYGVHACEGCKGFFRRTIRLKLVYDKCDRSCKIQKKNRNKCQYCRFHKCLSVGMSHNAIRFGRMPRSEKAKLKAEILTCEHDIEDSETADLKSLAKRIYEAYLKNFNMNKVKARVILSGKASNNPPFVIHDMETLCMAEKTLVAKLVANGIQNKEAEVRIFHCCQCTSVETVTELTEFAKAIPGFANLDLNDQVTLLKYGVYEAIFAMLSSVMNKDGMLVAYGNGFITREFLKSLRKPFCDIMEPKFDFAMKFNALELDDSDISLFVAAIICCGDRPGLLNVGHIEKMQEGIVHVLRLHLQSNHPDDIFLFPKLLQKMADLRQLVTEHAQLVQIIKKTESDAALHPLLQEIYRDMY
Text: as §1

Work on CC(=O)Oc1ccc2c(c1)[C@@]1(C)CCC[C@](C)(C(=O)OC(=O)[C@@]3(C)CCC[C@]4(C)c5cc(OC(C)=O)ccc5CC[C@@H]34)[C@@H]1CC2 [Compound 1] yielded an IC50 (human PPARδ) of over 10 µM, a fold induction at 0.1 µM (ABC1 mRNA) of 6.9 ± 0.6 and an IC50 (human PPARα) of over 10 µM.
